# Test: Tetrabenazine solubility across the pH range 2-12 (Comparative Example 1)
# Format: physicochemical
# Procedure: The following example employs immediate-release tablets of tetrabenazine, in contrast to the controlled-release tablets of the present invention, to determine the solubility of tetrabenazine across the pH range 2-12.
# The dissolution of tetrabenazine 12.5 mg and 25 mg immediate-release tablets was conducted in 0.1 M hydrochloric acid solution (pH 1.5).
# The solubility of tetrabenazine was determined across the pH range 2-12 in water, adjusted with hydrochloric acid/sodium hydroxide as necessary and if feasible complete dissolutions at pH 7.0 and pH 12.
# All samples were protected from light throughout the experiment.
smiles,measurement,setting,value
"COc1cc2c(cc1OC)C1CC(=O)C(CC(C)C)CN1CC2 (stereo not drawn) [tetrabenazine, 1,3,4,6,7,11b-hexahydro-9,10-dimethoxy-3-(2-methylpropyl)-2H-benzo(a)quinolizin-2-one]",solubility,between pH 4 and pH 12,approximately 3.0 mg/100 ml
same,solubility category,between pH 4 and pH 12,practically insoluble
same,solubility category,pH 2,slightly soluble
same,solubility,pH 3,approximately 4.0 mg/100 ml
same,solubility category,pH 3,practically insoluble
same,solubility category,pH range of 3-12,practically insoluble

# Source: patent publication US20100055133A1, “PHARMACEUTICAL COMPOSITIONS” (Biovail Laboratories International (Barbados) S.R.L, priority 2008, published 2010)
